In PubChem BioAssay AID248 (DTP/NCI, 2004):
Values joined by “and” are separate entries in the source; they are usually repeats but may differ in a detail not shown here. Equal values may be shown once. Inconclusive results and toxic doses are left out. Cut-off read from the data, not from the text of the source: active = T/C of 150% or more; inactive = T/C below 125%.

Test system: L1210 leukemia ip in BDF1 mice, survival T/C
Test: NCI In Vivo Anticancer Drug Screen. Data for tumor model L1210 Leukemia (intraperitoneal) in B6D2F1 (BDF1) mice
Details: endpoint: mean survival time, higher = longer survival
Outline: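 Read-out is survival time, reported as the treated-group measurement over the vehicle-control measurement.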

[1] = dose: 100.0 mg/kg/injection, schedule: Q01DX001 (ip), vehicle: carboxymethylcellulose (CMC)
[2] = dose: 200.0 mg/kg/injection, schedule: Q01DX001 (ip), vehicle: carboxymethylcellulose (CMC)
[3] = dose: 400.0 mg/kg/injection, schedule: Q01DX001 (ip), vehicle: carboxymethylcellulose (CMC)
[4] = dose: 100.0 mg/kg/injection, schedule: Q04DX003 (ip), vehicle: saline with Tween-80
[5] = dose: 200.0 mg/kg/injection, schedule: Q04DX003 (ip), vehicle: saline with Tween-80
[6] = dose: 100.0 mg/kg/injection, schedule: Q01DX001 (ip), vehicle: saline
[7] = dose: 200.0 mg/kg/injection, schedule: Q01DX001 (ip), vehicle: saline
[8] = dose: 400.0 mg/kg/injection, schedule: Q01DX001 (ip), vehicle: saline
[9] = dose: 100.0 mg/kg/injection, schedule: Q04DX003 (ip), vehicle: gum acacia
[10] = dose: 200.0 mg/kg/injection, schedule: Q04DX003 (ip), vehicle: gum acacia
[11] = dose: 400.0 mg/kg/injection, schedule: Q04DX003 (ip), vehicle: gum acacia
[12] = dose: 50.0 mg/kg/injection, schedule: Q01DX009 (ip), vehicle: saline
[13] = dose: 100.0 mg/kg/injection, schedule: Q01DX009 (ip), vehicle: saline
[14] = dose: 100.0 mg/kg/injection, schedule: Q04DX003 (ip), vehicle: saline
[15] = dose: 200.0 mg/kg/injection, schedule: Q04DX003 (ip), vehicle: saline
[16] = dose: 100.0 mg/kg/injection, schedule: Q01DX009 (ip), vehicle: Klucel (hydroxypropylcellulose) (HPC)
[17] = dose: 200.0 mg/kg/injection, schedule: Q01DX009 (ip), vehicle: Klucel (hydroxypropylcellulose) (HPC)
[18] = dose: 400.0 mg/kg/injection, schedule: Q01DX009 (ip), vehicle: Klucel (hydroxypropylcellulose) (HPC)

Measured: T/C

CC(=O)OC1C=C2CCC3C(CC(=O)C4(C)C3CC3OC34C(C)=O)C2(C)CC1 (stereo unspecified)
inactive: dose: 12.5 mg/kg/injection, schedule: Q04DX002 (ip), vehicle: saline 98 % of control | dose: 25.0 mg/kg/injection, schedule: Q04DX002 (ip), vehicle: saline 102 % of control | dose: 50.0 mg/kg/injection, schedule: Q04DX002 (ip), vehicle: saline 109 % of control

Clc1nc2ccccc2nc1C(Cl)Cl
inactive: dose: 100.0 mg/kg/injection, schedule: Q01DX001 (ip), vehicle: Klucel (hydroxypropylcellulose) (HPC) 101 % of control | dose: 200.0 mg/kg/injection, schedule: Q01DX001 (ip), vehicle: Klucel (hydroxypropylcellulose) (HPC) 110 % of control

CCOC(=O)c1cc(C)nc(Cl)c1C#N
inactive: [1] 96 % of control | [2] 96 % of control | [3] 93 % of control

Cc1cccc(C)c1Nc1cc(=O)[nH]c(=O)[nH]1
inactive: dose: 75.0 mg/kg/injection, schedule: Q01DX001 (ip), vehicle: saline with Tween-80 106 % of control | dose: 150.0 mg/kg/injection, schedule: Q01DX001 (ip), vehicle: saline with Tween-80 89 % of control | dose: 300.0 mg/kg/injection, schedule: Q01DX001 (ip), vehicle: saline with Tween-80 96 % of control

c1ccc(N=NC2(c3ccccc3)CCC(c3ccccc3)=NN2c2ccccc2)cc1 (stereo unspecified)
inactive: [4] 100 % of control | [5] 89 % of control | dose: 400.0 mg/kg/injection, schedule: Q04DX003 (ip), vehicle: saline with Tween-80 93 % of control

O=[N+]([O-])c1ccc(S(=O)(=O)Cl)c(Cl)c1
inactive: [6] 100 % of control | [7] 96 % of control | [8] 92 % of control

O=[N+]([O-])c1cc([N+](=O)[O-])c2sc3ccccc3c2c1
inactive: dose: 50.0 mg/kg/injection, schedule: Q04DX002 (ip), vehicle: saline with Tween-80 97 % of control | dose: 100.0 mg/kg/injection, schedule: Q04DX002 (ip), vehicle: saline with Tween-80 104 % of control and 90 % of control | dose: 200.0 mg/kg/injection, schedule: Q04DX002 (ip), vehicle: saline with Tween-80 87 % of control | dose: 400.0 mg/kg/injection, schedule: Q04DX002 (ip), vehicle: saline with Tween-80 108 % of control

Cc1ccc(C)c(Nc2cc(=O)[nH]c(=O)[nH]2)c1
inactive: [9] 93 % of control | [10] 91 % of control | [11] 87 % of control

COC(=O)Nc1nc2cc(Cl)c(Cl)cc2[nH]1
inactive: [1] 94 % of control | [2] 100 % of control | [3] 100 % of control

CNC(=O)O/N=C(\C(=N\OC(=O)NC)c1ccccc1)c1ccccc1
inactive: [1] 96 % of control | [2] 96 % of control | [3] 96 % of control

Nc1cccc(Br)n1
inactive: dose: 37.5 mg/kg/injection, schedule: Q04DX002 (ip), vehicle: saline with Tween-80 88 % of control | dose: 75.0 mg/kg/injection, schedule: Q04DX002 (ip), vehicle: saline with Tween-80 91 % of control | dose: 150.0 mg/kg/injection, schedule: Q04DX002 (ip), vehicle: saline with Tween-80 104 % of control

C=C(C)CN
inactive: [12] 109 % of control | [13] 117 % of control | [14] 93 % of control | [15] 106 % of control

CCOC(=O)C[Si](C)(c1ccccc1)c1ccccc1
inactive: [6] 108 % of control | [7] 94 % of control | [8] 89 % of control

CS(=O)(=O)OCC1C2CCC(CC2)C1COS(C)(=O)=O (stereo unspecified)
inactive: dose: 100.0 mg/kg/injection, schedule: Q04DX003 (ip), vehicle: Klucel (hydroxypropylcellulose) (HPC) 100 % of control | dose: 200.0 mg/kg/injection, schedule: Q04DX003 (ip), vehicle: Klucel (hydroxypropylcellulose) (HPC) 103 % of control | dose: 400.0 mg/kg/injection, schedule: Q04DX003 (ip), vehicle: Klucel (hydroxypropylcellulose) (HPC) 102 % of control

COc1ccc(COC(=O)Nc2cccc(Cl)c2)cc1OC
inactive: [16] 96 % of control | [17] 102 % of control | [18] 103 % of control

COc1cc(OC)c(/C=C/c2ccc3ccccc3[n+]2[O-])c(OC)c1
inactive: dose: 100.0 mg/kg/injection, schedule: Q04DX002 (ip), vehicle: gum acacia 95 % of control | dose: 200.0 mg/kg/injection, schedule: Q04DX002 (ip), vehicle: gum acacia 95 % of control | dose: 400.0 mg/kg/injection, schedule: Q04DX002 (ip), vehicle: gum acacia 100 % of control

N#CC(OC(=O)c1ccccc1)c1ccc([N+](=O)[O-])cc1 (stereo unspecified)
inactive: [6] 102 % of control

CC(=O)N(CCCc1ccccc1)C(C)(C)C
inactive: [12] 104 % of control | [6] 110 % of control | [13] 110 % of control | [7] 114 % of control

CC(C)Oc1c(N(C)CCO)c2cc(Cl)ccc2oc1=O
inactive: [4] 95 % of control | [5] 101 % of control

O=C1CNC(=O)N1
inactive: [12] 105 % of control | [13] 107 % of control | [14] 94 % of control | dose: 200.0 mg/kg/injection, schedule: Q01DX009 (ip), vehicle: saline 96 % of control | [15] 100 % of control | dose: 400.0 mg/kg/injection, schedule: Q01DX009 (ip), vehicle: saline 96 % of control | dose: 400.0 mg/kg/injection, schedule: Q04DX003 (ip), vehicle: saline 98 % of control

NC(=O)c1nc(C(F)(F)F)[nH]c1C(N)=O
inactive: dose: 50.0 mg/kg/injection, schedule: Q01DX009 (ip), vehicle: water 96 % of control | dose: 100.0 mg/kg/injection, schedule: Q01DX009 (ip), vehicle: water 102 % of control | dose: 100.0 mg/kg/injection, schedule: Q04DX003 (ip), vehicle: water 100 % of control | dose: 200.0 mg/kg/injection, schedule: Q01DX009 (ip), vehicle: water 109 % of control | dose: 200.0 mg/kg/injection, schedule: Q04DX003 (ip), vehicle: water 100 % of control | dose: 300.0 mg/kg/injection, schedule: Q01DX009 (ip), vehicle: water 91 % of control

CCC/C=C(C)/C=N\NC(=O)c1ccc[n+](C)c1
inactive: dose: 50.0 mg/kg/injection, schedule: Q01DX009 (ip), vehicle: saline with Tween-80 93 % of control | dose: 100.0 mg/kg/injection, schedule: Q01DX009 (ip), vehicle: saline with Tween-80 97 % of control

CCOC(=O)/C=C/C(=O)OCC
inactive: [16] 100 % of control | [17] 103 % of control | [18] 108 % of control

Nc1cccc(/C=C/C=C\c2cccc([N+](=O)[O-])c2)c1
inactive: [6] 97 % of control | [7] 94 % of control | [8] 92 % of control

C=C[Si](C)(C=C)C=C
inactive: dose: 100.0 mg/kg/injection, schedule: Q01DX005 (ip), vehicle: saline 94 % of control | dose: 200.0 mg/kg/injection, schedule: Q01DX005 (ip), vehicle: saline 97 % of control | dose: 400.0 mg/kg/injection, schedule: Q01DX005 (ip), vehicle: saline 94 % of control

COc1cccc(CCC(=O)O)c1
inactive: dose: 100.0 mg/kg/injection, schedule: Q01DX009 (ip), vehicle: gum acacia 107 % of control | [9] 104 % of control | dose: 200.0 mg/kg/injection, schedule: Q01DX009 (ip), vehicle: gum acacia 107 % of control | [10] 102 % of control | dose: 400.0 mg/kg/injection, schedule: Q01DX009 (ip), vehicle: gum acacia 98 % of control | [11] 96 % of control
